Assay results as given in patent publication US8674118B2, “Compounds and methods for the treatment or prevention of flavivirus infections” (priority 2005, dated 2014).
Where a name gives a salt, the structure may show the parent alone.

tested on: HCV RNA replication (replicon cell lines Huh-7, 5.2 and ET); assay: Cell-Based Luciferase Reporter HCV RNA Replication Assay; conditions: Hepatitis C virus, Huh-7, 96 h, Huh-7, 5.2 or ET replicon cells, luciferase counts after 4 days incubation; read-out: IC50

First: C[C@H]1CC[C@H](C(=O)N(c2cc(C3=CCCCC3)sc2C(=O)O)C2COCOC2)CC1 [Compound 30, 5-cyclohex-1-enyl-3-[[1,3]dioxan-5-yl-(trans-4-methylcyclohexanecarbonyl)-amino]-thiophene-2-carboxylic acid]
Second: C[C@H]1CC[C@H](C(=O)N(c2cc(C3=CCCCC3)sc2C(=O)O)C2CC2)CC1 [Compound 51, 5-cyclohex-1-enyl-3-[cyclopropyl-(trans-4-methyl-cyclohexanecarbonyl)-amino]-thiophene-2-carboxylic acid]
The IC50 of the first is lower: under 5 µM for the first, 5 to 25 µM for the second. The first is the more potent here.

`CC(C)N(C(=O)c1ccc(Cl)cc1Cl)c1cc(C2=CCCCC2)sc1C(=O)O` [Compound 31, 5-cyclohex-1-enyl-3-[(2,4-dichloro-benzoyl)-isopropyl-amino]-thiophene-2-carboxylic acid] and `CN(c1cc(C2=CCCCC2)sc1C(=O)O)C(=O)[C@H]1CC[C@H](C)CC1` [Compound 37, 5-cyclohex-1-enyl-3-[methyl-(trans-4-methyl-cyclohexanecarbonyl)-amino]-thiophene-2-carboxylic acid] fall in the same range of IC50: 5 to 25 µM for the first, 5 to 25 µM for the second.

`CC1CCC(C(=O)N(c2cc(C3=CCC(O)CC3)sc2C(=O)O)C2CCC(O)CC2)CC1` (stereo not drawn) [Compound 34, RS-5-(4-hydroxy-cyclohex-1-enyl)-3-[(4-trans-hydroxy-cyclohexyl)-(4-trans-methyl-cyclohexanecarbonyl)-amino]-thiophene-2-carboxylic acid] and `CC1CCC(C(=O)N(c2cc(C3=CCC(C)(C)CC3)sc2C(=O)O)C2CCC(O)CC2)CC1` (stereo not drawn) [Compound 35, 5-(4,4-dimethyl-cyclohex-1-enyl)-3-[(4-trans-4-hydroxy-cyclohexyl)-(trans-4-methyl-cyclohexanecarbonyl)-amino]-thiophene-2-carboxylic acid] cannot be ordered by IC50: under 5 µM for the first, under 5 µM for the second.

`CC1(C)CCC(N(c2cc(C3=CCCCC3)sc2C(=O)O)C(=O)[C@H]2CC[C@H](C)CC2)CC1` [Compound 38, 5-cyclohex-1-enyl-3-[(4,4-dimethyl-cyclohexyl)-(trans-4-methyl-cyclohexanecarbonyl)-amino]-thiophene-2-carboxylic acid] and `C[C@H]1CC[C@H](C(=O)N(c2cc(C3=CCCCC3)sc2C(=O)O)[C@H]2CC[C@H](C)CC2)CC1` [Compound 52, 5-cyclohex-1-enyl-3-[(trans-4-methyl-cyclohexanecarbonyl)-(trans-4-methyl-cyclohexyl)-amino]-thiophene-2-carboxylic acid] cannot be ordered by IC50: under 5 µM for the first, under 5 µM for the second.

`C[C@H]1CC[C@H](C(=O)N(c2cc(C3=CCCCC3)sc2C(=O)O)[C@H]2CC[C@@H](n3cncn3)CC2)CC1` [Compound 41, 5-cyclohex-1-enyl-3-[(trans-4-methyl-cyclohexanecarbonyl)-(cis 4-[1,2,4]triazol-1-yl-cyclohexyl)-amino]-thiophene-2-carboxylic acid] and `C[C@H]1CC[C@H](C(=O)N(c2cc(C3=CCCCC3)sc2C(=O)O)[C@H]2CC[C@H](n3cncn3)CC2)CC1` [Compound 48, 5-cyclohex-1-enyl-3-[(trans-4-methylcyclohexanecarbonyl)-(trans-4-[1,2,4]triazol-1-yl-cyclohexyl)-amino]-thiophene-2-carboxylic acid; hydrochloride] cannot be ordered by IC50: under 5 µM for the first, under 5 µM for the second.

`C[C@H]1CC[C@H](C(=O)N(c2cc(C3=CCCCC3)sc2C(=O)O)C2CCSCC2)CC1` [Compound 42, 5-cyclohex-1-enyl-3-[(trans-4-methyl-cyclohexanecarbonyl)-(tetrahydrothiopyran-4-yl)-amino]-thiophene-2-carboxylic acid] and `C[C@H]1CC[C@H](C(=O)N(c2cc(C3=CCCCC3)sc2C(=O)O)[C@H]2CC[C@@H](C)CC2)CC1` [Compound 53, 5-cyclohex-1-enyl-3-[(trans-4-methyl-cyclohexanecarbonyl)-(cis-4-methyl-cyclohexyl)-amino]-thiophene-2-carboxylic acid] cannot be ordered by IC50: under 5 µM for the first, under 5 µM for the second.

First: CC1CCC(C(=O)N(c2cc(C3=CCCCC3)sc2C(=O)O)C2CCC(C(C)(C)C)CC2)CC1 (stereo not drawn) [Compound 44, 3-[(4-trans-tert-butyl-cyclohexyl)-(4-trans-methyl-cyclohexanecarbonyl)-amino]-5-cyclohex-1-enyl-thiophene-2-carboxylic acid]
Second: C[C@H]1CC[C@H](C(=O)N(c2cc(C3=CCCCC3)sc2C(=O)O)[C@H]2CC[C@@H](F)CC2)CC1 [Compound 57, 5-cyclohex-1-enyl-3-[(cis-4-fluoro-cyclohexyl)-(trans-4-methyl-cyclohexanecarbonyl)-amino]-thiophene-2-carboxylic acid]
The IC50 of the first is higher: 5 to 25 µM for the first, under 5 µM for the second. The second is the more potent here.

`CC1CCC(C(=O)N(c2cc(C3=CCCCCC3)sc2C(=O)O)C2CCCCC2)CC1` (stereo not drawn) [Compound 46, 5-cyclohept-1-enyl-3-[cyclohexyl-(4-trans-methyl-cyclohexanecarbonyl)-amino]-thiophene-2-carboxylic acid] and `CC1CC=C(c2cc(N(C(=O)C3CCC(C)CC3)C3CCCCC3)c(C(=O)O)s2)CC1` (stereo not drawn) [Compound 47, RS-3-[cyclohexyl-(4-trans-methyl-cyclohexanecarbonyl)-amino]-5-(4-methyl-cyclohex-1-enyl)-thiophene-2-carboxylic acid] cannot be ordered by IC50: under 5 µM for the first, under 5 µM for the second.

`C[C@H]1CC[C@H](C(=O)N(c2cc(C3=CCCCC3)sc2C(=O)O)[C@H]2CC[C@@H](C#N)CC2)CC1` [Compound 49, 3-[(cis-4-cyanocyclohexyl)-(trans-4-methylcyclohexanecarbonyl)-amino]-5-cyclohex-1-enyl-thiophene-2-carboxylic acid] and `C[C@H]1CC[C@H](C(=O)N(c2cc(C3=CCCCC3)sc2C(=O)O)[C@H]2CC[C@H](C#N)CC2)CC1` [Compound 50, 3-[(trans-4-cyanocyclohexyl)-(trans-4-methyl-cyclohexanecarbonyl)-amino]-5-cyclohex-1-enyl-thiophene-2-carboxylic acid] cannot be ordered by IC50: under 5 µM for the first, under 5 µM for the second.

First: CC1=CCCCC1c1cc(N(C(=O)C2CCC(C)CC2)C2CCC(=O)CC2)c(C(=O)O)s1 (stereo not drawn) [Compound 58, RS-3-[(4-trans-methyl-cyclohexanecarbonyl)-(4-oxo-cyclohexyl)-amino]-5-(2-methyl-cyclohex-2-enyl)-thiophene-2-carboxylic acid]
Second: C[C@H]1CC[C@H](C(=O)N(c2cc(C3=CCCCC3)sc2C(=O)O)[C@H]2CC[C@H](F)CC2)CC1 [Compound 70, 5-cyclohex-1-enyl-3-[(trans-4-fluoro-cyclohexyl)-(trans-4-methyl-cyclohexanecarbonyl)-amino]-thiophene-2-carboxylic acid]
The IC50 of the first is higher: 5 to 25 µM for the first, under 5 µM for the second.

`C[C@H]1CC[C@H](C(=O)N(c2cc(C3=CCCCC3)sc2C(=O)O)[C@H]2CC[C@H](c3nnn[nH]3)CC2)CC1` [Compound 62, 5-cyclohex-1-enyl-3-{(trans-4-methyl-cyclohexanecarbonyl)-[trans-4-(1h-tetrazol-5-yl)-cyclohexyl]-amino}-thiophene-2-carboxylic acid] and `CC1CCC(C(=O)N(c2cc(C3=CCCCC3)sc2C(=O)O)C2CC[S+]([O-])CC2)CC1` (stereo not drawn) [Compound 63, 5-cyclohex-1-enyl-3-[(trans-4-methyl-cyclohexanecarbonyl)-(1-oxo-hexahydro-1-thiopyran-4-yl)-amino]-thiophene-2-carboxylic acid] cannot be ordered by IC50: under 5 µM for the first, under 5 µM for the second.

`CC1(C)CCC(c2cc(N(C(=O)[C@H]3CC[C@H](C)CC3)[C@H]3CC[C@H](O)CC3)c(C(=O)O)s2)CC1` [Compound 64, 5-(4,4-dimethyl-cyclohexyl)-3-[(trans-4-hydroxy-cyclohexyl)-(trans-4-methyl-cyclohexanecarbonyl)-amino]-thiophene-2-carboxylic acid] and `CC1CCC(C(=O)N(c2cc(C3=CCCCC3)sc2C(=O)O)C2CCC3(CC2)CN(C)C(=O)N3C)CC1` (stereo not drawn) [Compound 73, 5-cyclohex-1-enyl-3-[cis(1,3-dimethyl-2-oxo-1,3-diaza-spiro[4.5]dec-8-yl)-(trans-4-methyl-cyclohexanecarbonyl)-amino]-thiophene-2-carboxylic acid] cannot be ordered by IC50: under 5 µM for the first, under 5 µM for the second.

`CC1CCC(C(=O)N(c2cc(C3=CCCCC3)sc2C(=O)O)C2CCc3ccccc3C2)CC1` (stereo not drawn) [Compound 66, RS-5-cyclohex-1-enyl-3-[(4-trans-methyl-cyclohexanecarbonyl)-(1,2,3,4-tetrahydro-naphthalen-2-yl)-amino]-thiophene-2-carboxylic acid] and `COc1ccc2c(c1)CC(N(C(=O)C1CCC(C)CC1)c1cc(C3=CCCCC3)sc1C(=O)O)CC2` (stereo not drawn) [Compound 67, RS-5-cyclohex-1-enyl-3-[(7-methoxy-1,2,3,4-tetrahydro-naphthalen-2-yl)-(4-trans-methyl-cyclohexanecarbonyl)-amino]-thiophene-2-carboxylic acid] cannot be ordered by IC50: under 5 µM for the first, under 5 µM for the second.

`CNC(=O)C1CCC(N(C(=O)C2CCC(C)CC2)c2cc(C3=CCCCC3)sc2C(=O)O)CC1C(=O)O` (stereo not drawn) [Compound 68, 3-[(3-trans-carboxy-4-trans-methylcarbamoyl-cyclohexyl)-(4-trans-methyl-cyclohexanecarbonyl)-amino]-5-cyclohex-1-enyl-thiophene-2-carboxylic acid] and `CC1CCC(C(=O)N(c2cc(C3=CCCCC3)sc2C(=O)O)C2CCC3C(=O)N(C)C(=O)C3C2)CC1` (stereo not drawn) [Compound 72, RS-5-cyclohex-1-enyl-3-[(trans-methyl-cyclohexanecarbonyl)-(2-methyl-1,3-dioxo-octahydro-isoindol-5-yl)-amino]-thiophene-2-carboxylic acid] cannot be ordered by IC50: under 5 µM for the first, under 5 µM for the second.

same assay, conditions: Huh-7, 5.2 or ET replicon cells, luciferase counts after 4 days incubation; read-out: IC50

`CC1CCC(C(=O)N(c2cc(C3=CCCCC3)sc2C(=O)O)C2CCC(C(C)(C)C)CC2)CC1` (stereo not drawn) [Compound 45, 3-[(4-cis-tert-butyl-cyclohexyl)-(4-trans-methyl-cyclohexanecarbonyl)-amino]-5-cyclohex-1-enyl-thiophene-2-carboxylic acid] and `CC1CCC(C(=O)N(c2cc(C3=CCCC(C)C3)sc2C(=O)O)C2CCC(O)CC2)CC1` (stereo not drawn) [Compound 61, RS-3-[(4-trans-hydroxy-cyclohexyl)-(4-trans-methyl-cyclohexanecarbonyl)-amino]-5-(5-methyl-cyclohex-1-enyl)-thiophene-2-carboxylic acid] cannot be ordered by IC50: under 5 µM for the first, under 5 µM for the second.
